Legend:
[1] = target: T1, Glucocorticoid receptor (Homo sapiens, UniProt P04150); experiment: Transactivation activity at glucocorticoid receptor in human HeLa cells assessed as induction of MMTV promoter activity by luciferase reporter gene assay; assay type: cell-based
T1 sequence (P04150 whole entry): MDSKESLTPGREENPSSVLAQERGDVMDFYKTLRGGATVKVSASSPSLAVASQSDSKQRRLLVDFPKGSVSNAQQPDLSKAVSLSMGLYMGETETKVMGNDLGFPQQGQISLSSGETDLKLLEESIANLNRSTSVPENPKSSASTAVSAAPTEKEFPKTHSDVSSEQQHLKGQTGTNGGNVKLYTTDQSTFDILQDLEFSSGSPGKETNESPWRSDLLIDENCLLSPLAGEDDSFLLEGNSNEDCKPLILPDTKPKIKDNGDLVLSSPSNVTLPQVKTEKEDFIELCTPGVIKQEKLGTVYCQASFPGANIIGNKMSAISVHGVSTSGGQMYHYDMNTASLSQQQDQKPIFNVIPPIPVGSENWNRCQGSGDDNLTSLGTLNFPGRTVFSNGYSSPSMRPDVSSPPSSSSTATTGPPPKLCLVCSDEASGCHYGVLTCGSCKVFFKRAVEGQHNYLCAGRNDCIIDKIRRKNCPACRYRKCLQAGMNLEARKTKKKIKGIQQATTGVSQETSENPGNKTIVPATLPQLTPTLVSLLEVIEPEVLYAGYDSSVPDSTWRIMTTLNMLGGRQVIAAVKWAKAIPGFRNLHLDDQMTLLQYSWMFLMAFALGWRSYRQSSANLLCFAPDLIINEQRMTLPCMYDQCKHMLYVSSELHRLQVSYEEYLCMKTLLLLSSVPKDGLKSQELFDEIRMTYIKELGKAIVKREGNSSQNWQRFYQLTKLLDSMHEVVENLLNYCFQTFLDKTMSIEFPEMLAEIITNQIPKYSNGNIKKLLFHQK

[2] = Stability in human liver microsomes assessed as drug recovery after 30 mins; assay type: ADME, microsome; conditions: read-out: Drug recovery
[3] = target: T2, Progesterone receptor (Homo sapiens, UniProt P06401); experiment: Binding affinity to recombinant human progesterone receptor expressed in baculovirus infected sf9 cells
T2 sequence (P06401 whole entry): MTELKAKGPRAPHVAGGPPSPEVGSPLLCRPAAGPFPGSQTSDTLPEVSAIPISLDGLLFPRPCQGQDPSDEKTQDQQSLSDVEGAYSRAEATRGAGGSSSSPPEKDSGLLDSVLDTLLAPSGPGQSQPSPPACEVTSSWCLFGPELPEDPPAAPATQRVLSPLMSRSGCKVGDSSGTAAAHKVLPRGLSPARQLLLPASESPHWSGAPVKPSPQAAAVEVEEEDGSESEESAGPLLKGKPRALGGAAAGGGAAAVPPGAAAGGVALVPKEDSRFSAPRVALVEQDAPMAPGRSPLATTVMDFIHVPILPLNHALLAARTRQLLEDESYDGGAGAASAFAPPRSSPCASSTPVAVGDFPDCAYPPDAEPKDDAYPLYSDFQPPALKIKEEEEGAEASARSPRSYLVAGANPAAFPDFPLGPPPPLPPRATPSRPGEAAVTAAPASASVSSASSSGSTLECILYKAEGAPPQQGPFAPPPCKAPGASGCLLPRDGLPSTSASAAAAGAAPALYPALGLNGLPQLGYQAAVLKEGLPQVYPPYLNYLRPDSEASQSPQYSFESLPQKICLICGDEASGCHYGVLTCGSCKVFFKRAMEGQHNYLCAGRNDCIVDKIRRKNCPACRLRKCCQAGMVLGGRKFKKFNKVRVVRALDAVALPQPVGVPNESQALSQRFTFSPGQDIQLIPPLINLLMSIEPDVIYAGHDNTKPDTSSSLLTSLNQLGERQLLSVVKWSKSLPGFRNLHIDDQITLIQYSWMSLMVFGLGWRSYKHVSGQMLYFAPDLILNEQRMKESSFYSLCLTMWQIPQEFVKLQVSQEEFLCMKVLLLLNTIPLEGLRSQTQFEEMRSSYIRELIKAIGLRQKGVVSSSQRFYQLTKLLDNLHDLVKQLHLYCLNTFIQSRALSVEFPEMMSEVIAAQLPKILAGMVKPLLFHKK

[4] = target: T3, Androgen receptor (Homo sapiens, UniProt P10275); experiment: Binding affinity to recombinant human androgen receptor expressed in baculovirus infected sf9 cells
T3 sequence (P10275 whole entry): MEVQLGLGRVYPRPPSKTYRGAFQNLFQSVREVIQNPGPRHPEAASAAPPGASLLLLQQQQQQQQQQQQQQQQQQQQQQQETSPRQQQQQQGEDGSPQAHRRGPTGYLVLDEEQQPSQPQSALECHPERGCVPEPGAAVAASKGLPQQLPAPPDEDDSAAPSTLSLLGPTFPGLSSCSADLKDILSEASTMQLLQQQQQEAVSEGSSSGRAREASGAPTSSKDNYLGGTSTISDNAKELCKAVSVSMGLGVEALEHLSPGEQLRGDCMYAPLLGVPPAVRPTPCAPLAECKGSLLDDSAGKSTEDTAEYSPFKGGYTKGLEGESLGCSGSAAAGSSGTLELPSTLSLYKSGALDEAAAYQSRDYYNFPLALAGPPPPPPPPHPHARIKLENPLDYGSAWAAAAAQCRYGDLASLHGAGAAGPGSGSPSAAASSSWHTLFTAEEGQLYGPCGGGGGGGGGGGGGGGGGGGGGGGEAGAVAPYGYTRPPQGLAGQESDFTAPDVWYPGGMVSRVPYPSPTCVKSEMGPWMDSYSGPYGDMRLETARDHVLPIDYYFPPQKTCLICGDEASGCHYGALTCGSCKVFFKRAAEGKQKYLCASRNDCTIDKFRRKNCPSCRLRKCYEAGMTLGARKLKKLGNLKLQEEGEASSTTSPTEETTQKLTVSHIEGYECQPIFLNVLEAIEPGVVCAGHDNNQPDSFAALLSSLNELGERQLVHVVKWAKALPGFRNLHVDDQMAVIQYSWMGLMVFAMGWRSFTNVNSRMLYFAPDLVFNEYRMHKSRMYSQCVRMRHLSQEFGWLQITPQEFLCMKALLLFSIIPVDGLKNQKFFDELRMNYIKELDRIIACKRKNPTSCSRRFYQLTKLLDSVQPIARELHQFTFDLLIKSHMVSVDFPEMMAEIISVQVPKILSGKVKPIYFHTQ

[5] = target: T4, Mineralocorticoid receptor (Homo sapiens, UniProt P08235); experiment: Binding affinity to recombinant human mineralocorticoid receptor expressed in baculovirus infected sf9 cells
T4 sequence (P08235 whole entry): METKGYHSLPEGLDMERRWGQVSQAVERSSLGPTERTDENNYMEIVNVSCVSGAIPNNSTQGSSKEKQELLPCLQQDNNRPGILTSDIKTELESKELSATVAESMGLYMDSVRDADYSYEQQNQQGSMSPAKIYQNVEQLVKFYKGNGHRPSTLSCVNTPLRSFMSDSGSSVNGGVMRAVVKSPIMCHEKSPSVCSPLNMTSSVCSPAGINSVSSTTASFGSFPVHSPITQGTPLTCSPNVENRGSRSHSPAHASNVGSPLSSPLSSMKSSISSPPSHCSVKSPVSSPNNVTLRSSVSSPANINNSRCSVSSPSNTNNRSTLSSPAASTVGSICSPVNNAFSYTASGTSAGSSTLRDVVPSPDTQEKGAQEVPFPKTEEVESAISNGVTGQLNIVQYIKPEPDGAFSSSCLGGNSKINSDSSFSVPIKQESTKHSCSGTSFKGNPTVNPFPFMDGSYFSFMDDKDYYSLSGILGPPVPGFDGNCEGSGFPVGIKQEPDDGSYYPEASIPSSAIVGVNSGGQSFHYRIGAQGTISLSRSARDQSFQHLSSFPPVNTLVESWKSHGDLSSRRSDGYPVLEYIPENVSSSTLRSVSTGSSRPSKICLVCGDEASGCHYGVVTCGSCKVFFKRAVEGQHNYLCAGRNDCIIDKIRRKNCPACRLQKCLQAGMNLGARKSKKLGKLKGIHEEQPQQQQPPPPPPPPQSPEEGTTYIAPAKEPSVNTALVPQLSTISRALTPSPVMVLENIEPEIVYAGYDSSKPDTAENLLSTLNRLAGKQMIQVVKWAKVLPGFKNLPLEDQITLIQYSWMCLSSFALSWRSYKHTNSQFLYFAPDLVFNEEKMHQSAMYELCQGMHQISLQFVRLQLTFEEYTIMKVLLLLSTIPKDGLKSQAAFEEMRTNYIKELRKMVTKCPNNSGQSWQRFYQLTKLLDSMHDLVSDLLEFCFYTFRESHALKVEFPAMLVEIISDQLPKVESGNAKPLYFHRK

[6] = target: T1, Glucocorticoid receptor; experiment: Transrepression activity at glucocorticoid receptorin human HeLa cells assessed as inhibition of TPA-induced collagenase promoter activity by luciferase reporter gene assay; assay type: cell-based
[7] = target: T1, Glucocorticoid receptor; experiment: Transrepression activity at glucocorticoid receptor in human THP1 cells assessed as receptor-mediated anti-inflammatory activity by measuring inhibition of LPS-induced IL-8 production; assay type: cell-based
[8] = target: T1, Glucocorticoid receptor; experiment: Binding affinity to recombinant human glucocorticoid receptor expressed in baculovirus infected sf9 cells
[9] = tested on: Rattus norvegicus; experiment: Anti-inflammatory activity in po dosed Brown Norway rat assessed as inhibition of TMA-induced ear edema; assay type: functional
[10] = tested on: Rattus norvegicus; experiment: Anti-inflammatory activity in Wistar rat assessed as inhibition of croton oil-induced ear edema at 30 mg/kg, po relative to control; assay type: functional
[11] = tested on: Rattus norvegicus; experiment: Anti-inflammatory activity in po dosed Wistar rat assessed as inhibition of croton oil-induced ear edema; assay type: functional
[12] = tested on: Rattus norvegicus; experiment: Anti-inflammatory activity in Brown Norway rat assessed as inhibition of TMA-induced ear edema at 30 mg/kg, po relative to control; assay type: functional

Structure (SMILES)	pEC50 [1]	remaining at 0.5 h [2] [%]	IC50 [3] [nM]	IC50 [4] [nM]	IC50 [5] [nM]	IC50 [6] [nM]	IC50 [7] [nM]	IC50 [8] [nM]	ED50 [9] [mg/kg]	Imax [10] [%]	ED50 [11] [mg/kg]	Imax [12] [%]
Cc1ccc2c(NCC(O)(CC(C)(C)c3cc(F)ccc3O)C(F)(F)F)cccc2n1 (stereo not given)	7.9	31	–	–	–	–	–	–	–	–	–	–
CCSC[C@@](O)([C@@H](Nc1cccc2nc(C)ccc12)c1ccc(OC)c(F)c1Cl)C(F)(F)F	–	–	794	> 1000	> 1000	–	–	–	–	–	–	–
CC[C@@H]1C[C@](O)(C(F)(F)F)[C@@H](Nc2cccc3[nH]c(=O)ccc23)c2cc(F)c(F)c(O)c21	–	–	> 1000	> 1000	> 1000	–	–	–	–	–	–	–
Cc1ncc2c(N[C@H]3c4ccc(F)c(O)c4C(C)(C)C[C@]3(O)C(F)(F)F)cc(F)cc2n1	6.8	–	> 1000	> 1000	> 1000	39.8	39.8	126	–	–	–	–
CC[C@@H]1C[C@](O)(C(F)(F)F)[C@@H](Nc2cccc3nc(C)ccc23)c2ccc(F)c(O)c21	7.9	86	794	> 1000	> 1000	5.01	5.01	12.6	–	–	–	–
CC(C)(CC(O)(CNc1cccc2c(=O)[nH]ccc12)C(F)(F)F)c1cccc(F)c1O (stereo not given)	7.6	13	200	> 1000	> 1000	3.98	3.98	2.51	–	–	–	–
CC1(C)C[C@](O)(C(F)(F)F)[C@@H](Nc2cccc3[nH]c(=O)ccc23)c2ccc(F)c(O)c21	7.6	–	794	794	> 1000	15.8	15.8	15.8	–	–	–	–
Cc1ccc2c(N[C@H]3c4ccc(F)c(O)c4[C@H](C)C[C@]3(O)C(F)(F)F)cccc2n1	7.4	–	> 1000	> 1000	> 1000	20	20	15.8	–	–	–	–
C=C(C)C[C@@](O)([C@@H](Nc1cccc2c(=O)[nH]ccc12)c1cc(Br)ccc1O)C(F)(F)F (racemic)	6.8	–	631	> 1000	> 1000	20	20	63.1	–	–	–	–
CC1(C)C[C@](O)(C(F)(F)F)[C@@H](Nc2cccc3c(=O)[nH]ccc23)c2ccc(F)c(O)c21 (racemic)	7.9	48	794	316	> 1000	6.31	6.31	20	–	–	–	–
C[C@@H]1C[C@H]2[C@@H]3CCC4=CC(=O)C=C[C@]4(C)[C@@]3(F)[C@@H](O)C[C@]2(C)[C@@]1(O)C(=O)CO [DEXAMETHASONE]	–	–	> 1000	–	–	–	–	–	–	–	–	–
C[C@]12C=CC(=O)C=C1CC[C@@H]1[C@@H]2[C@@H](O)C[C@@]2(C)[C@H]1CC[C@]2(O)C(=O)CO [PREDNISOLONE]	–	–	–	–	–	–	–	–	6.7	83	15.7	107

Source: ChEMBL document CHEMBL4041544, “Discovery of new selective glucocorticoid receptor agonist leads” (Bioorg Med Chem Lett, 2017)
